Results reported in the OligoGym collection.
HELM strings list units from the 5' end as sugar, base in round brackets, then linkage (d deoxyribose, r ribose, m 2'-O-methyl, p phosphodiester). Strings are as the collection lists them; they lack the last nucleoside at the 3' end of the tested compound. [moe] = 2'-O-(2-methoxyethyl) (MOE); [sp] = phosphorothioate linkage; [m5C] = 5-methylcytosine

Target: APP
Assay: mouse, dose not given
Details: ASO

Row | Substance | 3 h FOB score [score 0-7]
1 | RNA1{[moe](G)[sp].[moe]([m5C])p.[moe](T)p.[moe](A)p.[moe]([m5C])[sp].d(A)[sp].d(A)[sp].d(T)[sp].d(T)[sp].d(A)[sp].d(T)[sp].d([m5C])[sp].d([m5C])[sp].d(A)[sp].d([m5C])[sp].[moe](A)p.[moe](T)p.[moe](G)[sp].[moe](G)}$$$$ (last 3' nucleoside missing) | 0
2 | RNA1{[moe](G)[sp].[moe]([m5C])p.[moe](T)p.[moe](G)p.[moe](T)[sp].d(T)[sp].d(G)[sp].d(T)[sp].d(A)[sp].d(G)[sp].d(G)[sp].d(A)[sp].d(A)[sp].d([m5C])[sp].d(T)[sp].[moe]([m5C])p.[moe](G)p.[moe](A)[sp].[moe](A)}$$$$ (last 3' nucleoside missing) | 4
3 | RNA1{[moe](G)[sp].[moe]([m5C])p.[moe](T)p.[moe](T)p.[moe](A)[sp].d([m5C])[sp].d(A)[sp].d(T)[sp].d([m5C])[sp].d(A)[sp].d(T)[sp].d(T)[sp].d(T)[sp].d(T)[sp].d([m5C])[sp].[moe](T)p.[moe](T)p.[moe](G)[sp].[moe]([m5C])}$$$$ (last 3' nucleoside missing) | 0
4 | RNA1{[moe](G)[sp].[moe]([m5C])p.[moe](T)p.[moe](T)p.[moe]([m5C])[sp].d(A)[sp].d(T)[sp].d(T)[sp].d(A)[sp].d([m5C])[sp].d([m5C])[sp].d(A)[sp].d([m5C])[sp].d(T)[sp].d(T)[sp].[moe]([m5C])p.[moe](T)p.[moe](G)[sp].[moe](A)}$$$$ (last 3' nucleoside missing) | 1
5 | RNA1{[moe](G)[sp].[moe]([m5C])p.[moe](T)p.[moe]([m5C])p.[moe](A)[sp].d(G)[sp].d(A)[sp].d(G)[sp].d([m5C])[sp].d([m5C])[sp].d(A)[sp].d(G)[sp].d(G)[sp].d([m5C])[sp].d(G)[sp].[moe](A)p.[moe](G)p.[moe](T)[sp].[moe]([m5C])}$$$$ (last 3' nucleoside missing) | 3
6 | RNA1{[moe](G)[sp].[moe]([m5C])p.[moe](T)p.[moe]([m5C])p.[moe](A)[sp].d(T)[sp].d(T)[sp].d(T)[sp].d(T)[sp].d(T)[sp].d(T)[sp].d(T)[sp].d(T)[sp].d(A)[sp].d([m5C])[sp].[moe](A)p.[moe](T)p.[moe](G)[sp].[moe](A)}$$$$ (last 3' nucleoside missing) | 0
7 | RNA1{[moe](G)[sp].[moe]([m5C])p.[moe]([m5C])p.[moe](A)p.[moe](A)[sp].d([m5C])[sp].d(T)[sp].d(T)[sp].d(A)[sp].d(T)[sp].d(T)[sp].d([m5C])[sp].d(T)[sp].d([m5C])[sp].d(A)[sp].[moe](A)p.[moe](G)p.[moe](G)[sp].[moe](G)}$$$$ (last 3' nucleoside missing) | 1
8 | RNA1{[moe](G)[sp].[moe]([m5C])p.[moe]([m5C])p.[moe](A)p.[moe](T)[sp].d(A)[sp].d(T)[sp].d(T)[sp].d(G)[sp].d(T)[sp].d([m5C])[sp].d(A)[sp].d(T)[sp].d(T)[sp].d(T)[sp].[moe](T)p.[moe](A)p.[moe]([m5C])[sp].[moe](A)}$$$$ (last 3' nucleoside missing) | 1.33
9 | RNA1{[moe](G)[sp].[moe]([m5C])p.[moe]([m5C])p.[moe](T)p.[moe](T)[sp].d(A)[sp].d(T)[sp].d(T)[sp].d(A)[sp].d(T)[sp].d([m5C])[sp].d(T)[sp].d([m5C])[sp].d(A)[sp].d(A)[sp].[moe](A)p.[moe]([m5C])p.[moe](T)[sp].[moe]([m5C])}$$$$ (last 3' nucleoside missing) | 0
10 | RNA1{[moe](T)[sp].[moe](A)p.[moe](G)p.[moe](G)p.[moe](A)[sp].d(A)[sp].d([m5C])[sp].d(T)[sp].d([m5C])[sp].d(G)[sp].d(A)[sp].d(A)[sp].d([m5C])[sp].d([m5C])[sp].d(A)[sp].[moe]([m5C])p.[moe]([m5C])p.[moe](T)[sp].[moe]([m5C])}$$$$ (last 3' nucleoside missing) | 0.5
11 | RNA1{[moe](T)[sp].[moe](A)p.[moe](G)p.[moe](T)p.[moe](A)[sp].d([m5C])[sp].d(A)[sp].d(T)[sp].d(T)[sp].d([m5C])[sp].d([m5C])[sp].d(A)[sp].d([m5C])[sp].d(T)[sp].d(T)[sp].[moe](T)p.[moe](G)p.[moe](T)[sp].[moe](T)}$$$$ (last 3' nucleoside missing) | 0
12 | RNA1{[moe](T)[sp].[moe](A)p.[moe](T)p.[moe](G)p.[moe](A)[sp].d([m5C])[sp].d(A)[sp].d(A)[sp].d([m5C])[sp].d(A)[sp].d([m5C])[sp].d([m5C])[sp].d(G)[sp].d([m5C])[sp].d([m5C])[sp].[moe]([m5C])p.[moe](A)p.[moe]([m5C])[sp].[moe]([m5C])}$$$$ (last 3' nucleoside missing) | 4
13 | RNA1{[moe](T)[sp].[moe](A)p.[moe]([m5C])p.[moe](A)p.[moe](T)[sp].d([m5C])[sp].d(A)[sp].d(T)[sp].d(T)[sp].d(T)[sp].d(T)[sp].d([m5C])[sp].d(T)[sp].d(T)[sp].d(G)[sp].[moe]([m5C])p.[moe](A)p.[moe](G)[sp].[moe](T)}$$$$ (last 3' nucleoside missing) | 2.75
14 | RNA1{[moe](T)[sp].[moe](G)[sp].[moe](T)[sp].[moe]([m5C])[sp].[moe](A)[sp].d([m5C])[sp].d(T)[sp].d(T)[sp].d(T)[sp].d([m5C])[sp].d(T)[sp].d(T)[sp].d([m5C])[sp].d(A)[sp].d(G)[sp].[moe]([m5C])[sp].[moe]([m5C])[sp].[moe](A)[sp].[moe](G)}$$$$ (last 3' nucleoside missing) | 6
15 | RNA1{[moe](T)[sp].[moe](G)p.[moe](A)p.[moe](T)p.[moe](G)[sp].d([m5C])[sp].d(A)[sp].d([m5C])[sp].d(A)[sp].d(T)[sp].d(A)[sp].d(T)[sp].d([m5C])[sp].d([m5C])[sp].d(A)[sp].[moe](G)p.[moe](G)p.[moe]([m5C])[sp].[moe](T)}$$$$ (last 3' nucleoside missing) | 0.25
16 | RNA1{[moe](T)[sp].[moe](G)p.[moe](G)p.[moe](G)p.[moe]([m5C])[sp].d(A)[sp].d(T)[sp].d([m5C])[sp].d(A)[sp].d(T)[sp].d(T)[sp].d(T)[sp].d(T)[sp].d(T)[sp].d(G)[sp].[moe]([m5C])p.[moe](T)p.[moe]([m5C])[sp].[moe]([m5C])}$$$$ (last 3' nucleoside missing) | 0
17 | RNA1{[moe](T)[sp].[moe](G)p.[moe](G)p.[moe](T)p.[moe](A)[sp].d([m5C])[sp].d(T)[sp].d(A)[sp].d(T)[sp].d(T)[sp].d(T)[sp].d([m5C])[sp].d(T)[sp].d(A)[sp].d(A)[sp].[moe](G)p.[moe](G)p.[moe](A)[sp].[moe](A)}$$$$ (last 3' nucleoside missing) | 0.33
18 | RNA1{[moe](T)[sp].[moe](G)p.[moe](G)p.[moe](T)p.[moe](T)[sp].d(T)[sp].d(A)[sp].d([m5C])[sp].d([m5C])[sp].d(T)[sp].d(T)[sp].d(T)[sp].d(A)[sp].d(A)[sp].d([m5C])[sp].[moe](A)p.[moe](T)p.[moe](T)[sp].[moe]([m5C])}$$$$ (last 3' nucleoside missing) | 0
19 | RNA1{[moe](T)[sp].[moe](G)p.[moe](G)p.[moe](T)p.[moe]([m5C])[sp].d(A)[sp].d(T)[sp].d(T)[sp].d(A)[sp].d([m5C])[sp].d(T)[sp].d(A)[sp].d([m5C])[sp].d(T)[sp].d(T)[sp].[moe](A)p.[moe]([m5C])p.[moe](A)[sp].[moe]([m5C])}$$$$ (last 3' nucleoside missing) | 0
20 | RNA1{[moe](T)[sp].[moe](G)p.[moe](G)p.[moe](T)p.[moe]([m5C])[sp].d(A)[sp].d(T)[sp].d([m5C])[sp].d(A)[sp].d(A)[sp].d([m5C])[sp].d(T)[sp].d(T)[sp].d(T)[sp].d(T)[sp].[moe](T)p.[moe](A)p.[moe](G)[sp].[moe](T)}$$$$ (last 3' nucleoside missing) | 0
21 | RNA1{[moe](T)[sp].[moe](G)p.[moe](G)p.[moe](T)p.[moe]([m5C])[sp].d(T)[sp].d(A)[sp].d(T)[sp].d(A)[sp].d(T)[sp].d(A)[sp].d(T)[sp].d(T)[sp].d(T)[sp].d([m5C])[sp].[moe](A)p.[moe](G)p.[moe](G)[sp].[moe]([m5C])}$$$$ (last 3' nucleoside missing) | 0
22 | RNA1{[moe](T)[sp].[moe](G)p.[moe](G)p.[moe]([m5C])p.[moe](A)[sp].d(A)[sp].d(A)[sp].d([m5C])[sp].d(T)[sp].d([m5C])[sp].d(T)[sp].d([m5C])[sp].d(T)[sp].d(T)[sp].d(A)[sp].[moe](G)p.[moe](G)p.[moe](T)[sp].[moe](T)}$$$$ (last 3' nucleoside missing) | 1.33
23 | RNA1{[moe](T)[sp].[moe](G)p.[moe](G)p.[moe]([m5C])p.[moe](T)[sp].d(T)[sp].d(A)[sp].d(T)[sp].d(G)[sp].d(A)[sp].d(T)[sp].d([m5C])[sp].d(T)[sp].d(A)[sp].d(T)[sp].[moe](A)p.[moe]([m5C])p.[moe](A)[sp].[moe]([m5C])}$$$$ (last 3' nucleoside missing) | 1
24 | RNA1{[moe](T)[sp].[moe](G)p.[moe](T)p.[moe](G)p.[moe](A)[sp].d(T)[sp].d(T)[sp].d(T)[sp].d([m5C])[sp].d(A)[sp].d([m5C])[sp].d(T)[sp].d(A)[sp].d(A)[sp].d([m5C])[sp].[moe]([m5C])p.[moe](G)p.[moe](G)[sp].[moe]([m5C])}$$$$ (last 3' nucleoside missing) | 1.25
25 | RNA1{[moe](T)[sp].[moe](G)p.[moe](T)p.[moe](G)p.[moe]([m5C])[sp].d(A)[sp].d([m5C])[sp].d(A)[sp].d(T)[sp].d(A)[sp].d(A)[sp].d(A)[sp].d(A)[sp].d([m5C])[sp].d(A)[sp].[moe](G)p.[moe](G)p.[moe]([m5C])[sp].[moe](A)}$$$$ (last 3' nucleoside missing) | 1
26 | RNA1{[moe](T)[sp].[moe](G)p.[moe](T)p.[moe](T)p.[moe]([m5C])[sp].d([m5C])[sp].d(A)[sp].d(A)[sp].d(A)[sp].d(G)[sp].d(A)[sp].d(T)[sp].d(T)[sp].d([m5C])[sp].d([m5C])[sp].[moe](A)p.[moe]([m5C])p.[moe](T)[sp].[moe](T)}$$$$ (last 3' nucleoside missing) | 1
